# ChEMBL document CHEMBL3885861, “Open TG-GATES”
# Species on record: Rattus norvegicus
# Assay: Open TG-GATES - Regimen: Single
# Type: toxicity, organism-based, Sprague-Dawley
# Design: regimen Single, gender Male, age 6 weeks
# Details: in vivo, po, 3 mg/kg, route gavage, dose level Low; for APTT / Bas / Eos / Fbg / Hb / Ht / Lym / MCH / MCHC / MCV / Mono / Neu / PT / Plat / RBC / Ret / WBC: tissue Blood; for KIDNEY_L / KIDNEY_R / KIDNEY_TOTAL: tissue Kidney; for LIVER: tissue Liver; for A/G / ALP / ALT / AST / BUN / CRE / Ca / Cl / DBIL / GLC / IP / K / LDH / Na / PL / RALB / TBIL / TC / TG / TP / gamma-GTP: tissue Plasma
compound,measurement,setting,value
Nc1c2c(nc3ccccc13)CCCC2 [TACRINE],TERMINAL_BW,3 h,208.2 g
same,APTT,3 h,21.3 s
same,Bas,3 h,0%
same,Eos,3 h,0.4%
same,Fbg,3 h,283.8 mg/dL
same,Hb,3 h,13.4 g/dL
same,Ht,3 h,39%
same,Lym,3 h,77%
same,MCH,3 h,21.5 pg
same,MCHC,3 h,34.4%
same,MCV,3 h,62.5 fL
same,Mono,3 h,2.2%
same,Neu,3 h,19.4%
same,PT,3 h,16.1 s
same,Plat,3 h,120.6 x10_4/uL
same,RBC,3 h,623.8 x10_4/ul
same,Ret,3 h,8.2%
same,WBC,3 h,90.3 x10_2/uL
same,KIDNEY_L,3 h,0.9 g
same,KIDNEY_R,3 h,0.9 g
same,KIDNEY_TOTAL,3 h,1.9 g
same,LIVER,3 h,9.4 g
same,A/G,3 h,1.3
same,ALP,3 h,1562.6 IU/L
same,ALT,3 h,45.6 IU/L
same,AST,3 h,79.6 IU/L
same,BUN,3 h,13.4 mg/dL
same,CRE,3 h,0.2 mg/dL
same,Ca,3 h,10.7 mg/dL
same,Cl,3 h,107 meq/L
same,DBIL,3 h,0.002 mg/dL
same,GLC,3 h,184.2 mg/dL
same,IP,3 h,8 mg/dL
same,K,3 h,4 meq/L
same,LDH,3 h,251.6 IU/L
same,Na,3 h,142.6 meq/L
same,PL,3 h,139.2 mg/dL
same,RALB,3 h,3 g/dL
same,TBIL,3 h,0.024 mg/dL
same,TC,3 h,75 mg/dL
same,TG,3 h,64 mg/dL
same,TP,3 h,5.4 g/dL
same,gamma-GTP,3 h,1 IU/L
same,TERMINAL_BW,6 h,200.8 g
same,APTT,6 h,20.8 s
same,Bas,6 h,0%
same,Eos,6 h,0.8%
same,Fbg,6 h,312.8 mg/dL
same,Hb,6 h,13.6 g/dL
same,Ht,6 h,39.2%
same,Lym,6 h,78.8%
same,MCH,6 h,21.2 pg
same,MCHC,6 h,34.6%
same,MCV,6 h,61.2 fL
same,Mono,6 h,2.4%
same,Neu,6 h,17.2%
same,PT,6 h,15.6 s
same,Plat,6 h,125.6 x10_4/uL
same,RBC,6 h,641 x10_4/ul
same,Ret,6 h,7.7%
same,WBC,6 h,102.1 x10_2/uL
same,KIDNEY_L,6 h,0.9 g
same,KIDNEY_R,6 h,0.9 g
same,KIDNEY_TOTAL,6 h,1.8 g
same,LIVER,6 h,8.7 g
same,A/G,6 h,1.2
same,ALP,6 h,1243.4 IU/L
same,ALT,6 h,34.8 IU/L
same,AST,6 h,67.2 IU/L
same,BUN,6 h,11.4 mg/dL
same,CRE,6 h,0.2 mg/dL
same,Ca,6 h,10.6 mg/dL
same,Cl,6 h,106.8 meq/L
same,DBIL,6 h,0.002 mg/dL
same,GLC,6 h,175.6 mg/dL
same,IP,6 h,9 mg/dL
same,K,6 h,4.4 meq/L
same,LDH,6 h,200 IU/L
same,Na,6 h,142 meq/L
same,PL,6 h,148 mg/dL
same,RALB,6 h,3.1 g/dL
same,TBIL,6 h,0.024 mg/dL
same,TC,6 h,76 mg/dL
same,TG,6 h,89.6 mg/dL
same,TP,6 h,5.5 g/dL
same,gamma-GTP,6 h,1 IU/L
same,TERMINAL_BW,9 h,200.1 g
same,APTT,9 h,19.8 s
same,Bas,9 h,0%
same,Eos,9 h,1%
same,Fbg,9 h,303.6 mg/dL
same,Hb,9 h,13.4 g/dL
same,Ht,9 h,39%
same,Lym,9 h,78.2%
same,MCH,9 h,20.9 pg
same,MCHC,9 h,34.4%
same,MCV,9 h,60.7 fL
same,Mono,9 h,2.6%
same,Neu,9 h,17.8%
same,PT,9 h,16.3 s
same,Plat,9 h,115.2 x10_4/uL
same,RBC,9 h,643 x10_4/ul
same,Ret,9 h,7.8%
same,WBC,9 h,92.4 x10_2/uL
same,KIDNEY_L,9 h,0.9 g
same,KIDNEY_R,9 h,0.9 g
same,KIDNEY_TOTAL,9 h,1.8 g
same,LIVER,9 h,8.3 g
same,A/G,9 h,1.2
same,ALP,9 h,1371.2 IU/L
same,ALT,9 h,36 IU/L
same,AST,9 h,70.6 IU/L
same,BUN,9 h,12.4 mg/dL
same,CRE,9 h,0.1 mg/dL
same,Ca,9 h,10.6 mg/dL
same,Cl,9 h,107.8 meq/L
same,DBIL,9 h,0.002 mg/dL
same,GLC,9 h,181.6 mg/dL
same,IP,9 h,9.8 mg/dL
same,K,9 h,4.5 meq/L
same,LDH,9 h,253.4 IU/L
same,Na,9 h,141.6 meq/L
same,PL,9 h,134.4 mg/dL
same,RALB,9 h,2.9 g/dL
same,TBIL,9 h,0.012 mg/dL
same,TC,9 h,69.8 mg/dL
same,TG,9 h,97.8 mg/dL
same,TP,9 h,5.4 g/dL
same,gamma-GTP,9 h,1 IU/L
same,TERMINAL_BW,24 h,217.8 g
same,APTT,24 h,21.2 s
same,Bas,24 h,0%
same,Eos,24 h,1%
same,Fbg,24 h,292 mg/dL
same,Hb,24 h,13.6 g/dL
same,Ht,24 h,39.7%
same,Lym,24 h,80.8%
same,MCH,24 h,21.3 pg
same,MCHC,24 h,34.2%
same,MCV,24 h,62.4 fL
same,Mono,24 h,3%
same,Neu,24 h,14.4%
same,PT,24 h,16.2 s
same,Plat,24 h,113.1 x10_4/uL
same,RBC,24 h,636.6 x10_4/ul
same,Ret,24 h,7.5%
same,WBC,24 h,92.6 x10_2/uL
same,KIDNEY_L,24 h,1 g
same,KIDNEY_R,24 h,1 g
same,KIDNEY_TOTAL,24 h,1.9 g
same,LIVER,24 h,10 g
same,A/G,24 h,1.3
same,ALP,24 h,1864.4 IU/L
same,ALT,24 h,46.8 IU/L
same,AST,24 h,80 IU/L
same,BUN,24 h,15.6 mg/dL
same,CRE,24 h,0.1 mg/dL
same,Ca,24 h,10.8 mg/dL
same,Cl,24 h,107.8 meq/L
same,DBIL,24 h,0.002 mg/dL
same,GLC,24 h,197.4 mg/dL
same,IP,24 h,7.2 mg/dL
same,K,24 h,4.1 meq/L
same,LDH,24 h,293.2 IU/L
same,Na,24 h,141.6 meq/L
same,PL,24 h,146.8 mg/dL
same,RALB,24 h,3.1 g/dL
same,TBIL,24 h,0.032 mg/dL
same,TC,24 h,74.4 mg/dL
same,TG,24 h,107 mg/dL
same,TP,24 h,5.5 g/dL
same,gamma-GTP,24 h,1 IU/L
